Earlier results in patent US20070259329A1, “Anergy-inducing cellular composition” (BioVerde. Inc., priority 2006, published 2007).
Read-outs that look alike come from different tables or passages of the source.

How the values were obtained:
[1] = tested on: antibody-stimulated peripheral blood mononuclear cells; conditions: Falchetti et al. (2001), cited from earlier work
T-cells = conditions: Sanbongi et al. (1997); cited from earlier work

SMILES	cytokine productions ([1]; low concentrations (5-10 ppm))	cytokine productions ([1]; still lower concentrations (0.625-2.5 ppm))	proliferative responses of T-cells (T-cells)
Oc1ccc(C=Cc2cc(O)cc(O)c2)cc1 [resveratrol]	inhibited	enhanced	–
Oc1cc(O)c2c(c1)O[C@H](c1ccc(O)c(O)c1)[C@H](O)C2 [(−)-epicatechin]	–	–	inhibited
